Laboratory results taken from patent US6825230B2, “Spiro and dispiro 1,2,4-trixolane antimalarials” (Medicines for Malaria Venture MMV, priority 2002, dated 2004).
Converted amounts (≈) assume the structure as drawn. Counter-ions that a name gives are not always drawn. Like-named read-outs stand apart in the source and are kept apart here.

Key:
[1] = system: chloroquine-sensitive NF54 strain of P. falciparum; experiment: In vitro antimalarial semiautomated microdilution assay ([3H]-hypoxanthine incorporation), NF54 strain; format: cell-based, Plasmodium falciparum; conditions: for IC50: Plasmodium falciparum
Procedure, shortened: (§1)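 IC50 values come from Logit regression of [3H]-hypoxanthine uptake data. Parasites were intraerythrocytic P. falciparum forms taken from asynchronous stock cultures and tested by semiautomated microdilution.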

[2] = system: ANKA strain of P. berghei; experiment: Single dose STI in vivo screen in infected mice; design: species or system Plasmodium berghei; conditions: for Survival (days) 10 mg/kg po: single 10 mg/kg po in 3% ethanol and 7% Tween 80; for Survival (days) 10 mg/kg po / Survival (days) 10 mg/kg SSV po / Survival (days) 10 mg/kg sc: untreated 6-7 days; for Activity (%) 10 mg/kg po: single 10 mg/kg po in 3% ethanol and 7% Tween 80 on day 1 post-infection; for Activity (%) 10 mg/kg po / Activity (%) 10 mg/kg SSV po / Activity (%) 10 mg/kg sc: percent reduction in parasitemia on day 3; for Survival (days) 10 mg/kg SSV po: single 10 mg/kg po in SSV; for Activity (%) 10 mg/kg SSV po: single 10 mg/kg po in standard suspending vehicle (SSV) on day 1 post-infection; for Survival (days) 10 mg/kg sc: single 10 mg/kg sc in 3% ethanol and 7% Tween 80; for Activity (%) 10 mg/kg sc: single 10 mg/kg sc in 3% ethanol and 7% Tween 80 on day 1 post-infection
[3] = system: chloroquine-resistant K1 strain of P. falciparum; experiment: In vitro antimalarial semiautomated microdilution assay ([3H]-hypoxanthine incorporation), K1 strain; format: cell-based, Plasmodium falciparum; conditions: for IC50: Plasmodium falciparum
Procedure, shortened: as §1

[4] = system: ANKA strain of Plasmodium berghei; experiment: Single dose ED50/ED90/ED99 determination in infected mice; format: in vivo
Method: In the single dose ED50/ED98/ED99 determinations, Moro SPF or NMRI mice (group of three) infected with the ANKA strain of Plasmodium berghei were treated on day one post-infection. […] The SSV consists of 0.5% w/v CMC, 0.5% v/v benzyl alcohol, 0.4% v/v Tween 80, and 0.9% w/v sodium chloride in water. Antimalarial activity was measured by percent reduction in parasitemia on day three post-infection. The ED50/ED90 values were calculated by nonlinear fitting.
The ED50, ED90, and ED99 values were calculated by non-linear fitting with statistical program and were expressed in mg/kg.

[5] = system: Schistosoma mansoni adult worms (49-day-old); experiment: Effect on adult schistosomes (49-day-old) in infected mice; format: in vivo; conditions: single 400 mg/kg per os
Method: Mice were infected with 100 Schistosoma mansoni cercariae on day 49 post-treatment. Each group was treated per os with OZ compounds at single doses of 200, 400, and 600 mg/kg. Untreated mice served as the control. All groups were killed 4 weeks after treatment and the liver and intestine were removed and separated. The liver and intestine were compressed and alive male and female worms could be seen and counted.

[6] = system: Schistosoma mansoni 21-day-old schistosomules; experiment: Effect on 21-day-old schistosomules in infected mice; format: in vivo
Method: Mice were infected with 100 Schistosoma mansoni cercariae on day 21 post-treatment. Each group was treated per os with trioxolanes at a single dose of 200 mg/kg. […] All groups were killed 4 weeks after treatment and the liver and intestine were removed and separated. The liver and intestine were compressed and alive male and female worms could be seen and counted. The effect of the compounds was evaluated by mean total and female worm burden.

[7] = NF54, 72 h, read-out: IC50 (ng/ml) NF54, chloroquine-sensitive NF54 strain, 72 h incubation
[8] = K1, 72 h, read-out: IC50 (ng/ml) K1, chloroquine-resistant K1 strain, 72 h incubation
[9] = single dose po in SSV on day 1 post-infection, parasitemia day 3, nonlinear fitting
[10] = Plasmodium berghei, po, single dose po in SSV on day 1 post-infection, parasitemia day 3, nonlinear fitting
[11] = Plasmodium berghei, single dose po in SSV on day 1 post-infection, parasitemia day 3, nonlinear fitting, read-out: ED50

| SMILES | IC50 [1, 7] [ng/mL] | Survival (days) 10 mg/kg po ([2]; 10 mg/kg) [days] | Activity (%) 10 mg/kg po ([2]; 10 mg/kg) [%] | Survival (days) 10 mg/kg SSV po ([2]; 10 mg/kg) [days] | Activity (%) 10 mg/kg SSV po ([2]; 10 mg/kg) [%] | Survival (days) 10 mg/kg sc ([2]; 10 mg/kg) [days] | Activity (%) 10 mg/kg sc ([2]; 10 mg/kg) [%] | IC50 [3, 8] [ng/mL] | ED90 [4, 9] [mg/kg] | ED99 [4, 9] [mg/kg] | Survival (days) 10 mg/kg po [2] [days] | Activity (%) 10 mg/kg po [2] [%] | Survival (days) 10 mg/kg SSV po [2] [days] | Activity (%) 10 mg/kg SSV po [2] [%] | Survival (days) 10 mg/kg sc [2] [days] | Activity (%) 10 mg/kg sc [2] [%] | ED50 [4, 10] [mg/kg] | other results |
| --- | --- | --- | --- | --- | --- | --- | --- | --- | --- | --- | --- | --- | --- | --- | --- | --- | --- | --- |
| c1ncn(C[C@H]2CC[C@]3(CC2)OOC2(O3)C3CC4CC(C3)CC2C4)n1 (stereo partly drawn) [OZ235, cis-Adamantane-2-spiro-3′-8′-(1′H-1′,2′,4′-triazol-1′-ylmethyl)-1′,2′,4-trioxaspiro[4.5]decane mesylate] | 2 | 8.7 | 99.92 | 9.0 | 99.97 | 8.0 | 97 | 1 | 7.1 | 11 | – | – | – | – | – | – | – | ED50 [4, 9]: 4.0 mg/kg |
| COCC(=O)N1CCC2(CC1)OOC1(O2)C2CC3CC(C2)CC1C3 (stereo not drawn) [OZ113, Adamantane-2-spiro-3′-8′-methoxyacetyl-1′,2′,4′-trioxa-8′-azaspiro[4.5]decane] | 0.2 (≈ 0.593 nM) | – | – | – | – | – | – | 0.95 (≈ 2.82 nM) | 9.0 | 19 | 7.3 | 92 | 8.0 | 96 | 7.3 | 89 | 3.6 | – |
| CN1CCN(C(=O)C[C@H]2CC[C@]3(CC2)OOC2(O3)C3CC4CC(C3)CC2C4)CC1 (stereo partly drawn) [OZ227] | 0.2 (≈ 0.494 nM) | – | – | – | – | – | – | 0.2 (≈ 0.494 nM) | 4.0 | 6.2 | 8.3 | 99.68 | 9.3 | 99.90 | 10.7 | 99.84 | 2.3 | – |
| c1cn(CC[C@H]2CC[C@]3(CC2)OOC2(O3)C3CC4CC(C3)CC2C4)cn1 (stereo partly drawn) [OZ219] | – | – | – | – | – | – | – | – | – | 5.2 | 8.7 | 99.89 | 8.0 | 99.82 | 9.3 | 99.91 | – | IC50 ([1]; chloroquine-sensitive NF54 strain, 72 h incubation, read-out: IC50 (ng/ml) NF54): 1.6 ng/mL (≈ 4.46 nM); IC50 ([3]; chloroquine-resistant K1 strain, 72 h incubation, read-out: IC50 (ng/ml) K1): 0.85 ng/mL (≈ 2.37 nM); ED50 [4, 11]: 1.6 mg/kg; ED90 ([4]; po): 3.0 mg/kg |
| c1ncn(C[C@H]2CC[C@]3(CC2)OOC2(O3)C3CC4CC(C3)CC2C4)n1 (stereo partly drawn) [OZ177, cis-Adamantane-2-spiro-3′-8′-(1′H-1′,2′,4′-triazol-1′-ylmethyl)-1′,2′,4-trioxaspiro[4.5]decane] | – | 12.3 | 99.91 | 12.7 | 99.88 | 17.7 | 99.91 | – | 3.7 | 5.8 | – | – | – | – | – | – | 2.1 | IC50 (ng/ml) NF54 ([1]; chloroquine-sensitive NF54 strain, 72 h incubation): 1.7 ng/mL (≈ 4.92 nM); IC50 (ng/ml) K1 ([3]; chloroquine-resistant K1 strain, 72 h incubation): 0.9 ng/mL (≈ 2.61 nM) |
| c1ccc(C2CCC3(CC2)OOC2(O3)C3CC4CC(C3)CC2C4)cc1 (stereo not drawn) [OZ27] | – | – | – | – | – | – | – | – | 5.7 | 9.9 | – | – | – | – | – | – | – | % reduction of adult worms growth at day 49 after per os application of 400 mg/kg, TWR (%) ([5]; 49-day-old adults, total worm reduction rate): 20%; Adult worms day 49, per os 400 mg/kg, DEAD WORM (%) ([5]; percentage of dead worm in the liver): 10%; % reduction of schistosomule growth at day 21 after per os application of 200 mg/kg, TWR (%) ([6]; po, 200 mg/kg, 504 h): 63%; % reduction of schistosomule growth at day 21 after per os application of 200 mg/kg, FWR (%) ([6]; single 200 mg/kg per os, 21-day-old schistosomules, female worm reduction rate): 58%; ED50 [4, 11]: 2.9 mg/kg |
| O=C(NO)[C@H]1CC[C@@]2(CC1)OOC1(O2)C2CC3CC(C2)CC1C3 (stereo partly drawn) [OZ127] | 1.3 (≈ 4.02 nM) | – | – | – | – | – | – | 0.61 (≈ 1.89 nM) | 7.6 | 19 | 7.0 | 95 | 7.7 | 98 | 7.7 | 97 | 2.5 | – |
| C[C@H]1[C@@H](OCc2ccc(C(=O)O)cc2)O[C@@H]2O[C@@]3(C)CC[C@H]4[C@H](C)CC[C@@H]1[C@@]24OO3 [Artelinate, artelinate, reference compound] | – | – | – | – | – | – | – | – | 10 | 18 | – | – | – | – | – | – | – | ED50 [4, 9]: 4.8 mg/kg |
| NC[C@H]1CC[C@]2(CC1)OOC1(O2)C2CC3CC(C2)CC1C3 (stereo partly drawn) [OZ181] | – | 9.0 | 99.98 | 10.0 | 99.91 | 11.0 | 100 | – | 1.8 | 4.0 | – | – | – | – | – | – | 0.63 | – |
| c1cn(C[C@H]2CC[C@]3(CC2)OOC2(O3)C3CC4CC(C3)CC2C4)cn1 (stereo partly drawn) [OZ179] | 1.1 (≈ 3.19 nM) | – | – | – | – | – | – | 1.3 (≈ 3.77 nM) | 3.3 | 6.6 | – | – | – | – | – | – | 1.4 | Survival (days) 10 mg/kg po ([2]; hydrochloride, 10 mg/kg): 11.3 days; Activity (%) 10 mg/kg po ([2]; hydrochloride, 10 mg/kg): 99.91%; Survival (days) 10 mg/kg SSV po ([2]; hydrochloride, 10 mg/kg): 10.3 days; Activity (%) 10 mg/kg SSV po ([2]; hydrochloride, 10 mg/kg): 99.78%; Survival (days) 10 mg/kg sc ([2]; hydrochloride, 10 mg/kg): 11.3 days; Activity (%) 10 mg/kg sc ([2]; hydrochloride, 10 mg/kg): 99.91% |
